Data reported in EP4737449A1 (Changchun Genescience Pharmaceutical Co., Ltd., priority 2023, dated 2025).

biological target: T1, p53-Y220C mutant protein (Homo sapiens, UniProt P04637, Y220C); experiment: In vitro DNA binding activity assay (TR-FRET); format: biochemical; settings: concentration required to increase the binding activity of protein to DNA by 50%
T1 construct: The recombinant Y220C p53 DBD protein with his-tag
Protocol: The activity of the compound to modulate the binding of the p53-Y220C mutant protein to DNA was detected using TR-FREt (Time-Resolved Fluorescence Resonance Energy Transfer). The recombinant Y220C p53 DBD protein with his-tag and the DNA sequence with biotin label were prepared firstly. Donor Eu(Europium)-SA(Streptavidin) can be bound to the DNA sequence through biotin, receptor for his antibody attached to alphaphycocyanin(APC, allophycocyanin), and his antibody can be bound to the Y220C p53 DBD protein with his-tag. When exposed to an excitation light with a wavelength of 340 nm, the donor Eu(Europium)-SA(Streptavidin) can emit fluorescence with a wavelength of 615 nm. If the donor and the receptor are close to each other, the donor will transfer part of the energy to the receptor and produce fluorescence with a wavelength of 665 nm. […] If there is no interaction, only 615 nm fluorescence is produced. • 1) Experimental steps • a. Adding 4 µL of dilute compound solution to each well of a 384-well microplate; • a. Adding 4 µL of 4X P53 working solution to each well of the 384-well microplate; • c. Sealing the 384-well microplate and equilibrating the system at room temperature for 60 min; • d. Adding 4 µl of biotin DNA solution to the 384-well microplate; • e. Adding 4 µl of 4X test solution (MAb Anti-6His-Eu and streptavidin-d2) to each well of the 384-well microplate; • f. Incubating overnight in the dark; and • g. Reading data of 665 nm and 615 nm wavelengths on the BMG multifunctional microplate reader. • 2) Data analysis • a. Calculating the ratio for each well (Ratio665 nm/615 nm-Ratiobackground); • b. Calculating the activity percentage (%activity) as follows: C = (Ave_Ac−Ave_Ba)/(Ave_Dc−Ave_Bd) [formula] R data = (A−Ave_Ba−CD)/(D−Ave_Bd)*(Ave_Dc−Ave_Bd) [formula] % Activity = R data/Ave_VC*100 [formula] • A: Fluorescence intensity of the sample at 665 nm; D: Fluorescence intensity of the sample at 615 nm; • Ba: Background fluorescence intensity of the culture plate at 665 nm; Bd: Background fluorescence intensity of the culture plate at 615 nm; • Dc: Background fluorescence intensity of HIS-E at 615 nm; Ac: Background fluorescence intensity of streptavidin-d2 at 665 nm); and • c. Calculating SC150 and plotting dose-effect curve
Compared to the absence of the compound of the present invention, the activation percentage of binding of the p53 mutant protein to DNA in the presence of the compound of the present invention is expressed as SC150, which indicates the concentration of the compound required to increase the DNA binding activity of the p53 mutant protein by 50%. The SC150 is calculated using Prism™.

SC150	Compound
57 nM	CN1CC2CCC(C1)C2Nc1cccc2c(CC(F)(F)F)c(C#CCNC(=O)c3cnn(C(C)(C)C)c3N)nn12 (centres unmarked) [Compound 368, 5-amino-1-(tert-butyl)-N-(3-(7-((3-methyl-3-azabicyclo[3.2.1]octan-8-yl)amino)-3-(2,2,2-trifluoroethyl)pyrazolo[1,5-a]pyridin-2-yl)prop-2-yn-1-yl)-1H-pyrazole-4-carboxamide]
50 nM	CN1CC[C@@H](Nc2cccc3c(CC(F)(F)F)c(C#CCNC(=O)c4nnn(C(C)(C)C)n4)nn23)[C@@H](F)C1 [Compound 145, 2-tert-butyl-N-[3-(7-{[(3S,4R)-3-fluoro-1-methylpiperidin-4-yl]amino}-3-(2,2,2-trifluoroethyl)pyrazolo[1,5-a]pyridin-2-yl)prop-2-yn-1-yl]-2H-tetrazole-5-carboxamide]
9 nM	CN1CC[C@@H](Nc2cccc3c(CC(F)(F)F)c(C#CCNC(=O)c4cnn(C5(C)CC5)c4)nn23)[C@@H](F)C1 [Compound 010, N-[3-(7-{[(3S,4R)-3-fluoro-1-methylpiperidin-4-yl]amino}-3-(2,2,2-trifluoroethyl)pyrazolo[1,5-a]pyridin-2-yl)prop-2-yn-1-yl]-1-(1-methylcyclopropyl)-1H-pyrazole-4-carboxamide]
75 nM	CN1CC[C@@H](Nc2cccc3c(CC(F)(F)F)c(C#CCNC(=O)c4ccc(F)cc4)nn23)[C@@H](F)C1 [Compound 076, 4-fluoro-N-[3-(7-{[(3S,4R)-3-fluoro-1-methylpiperidin-4-yl]amino}-3-(2,2,2-trifluoroethyl)pyrazolo[1,5-a]pyridin-2-yl)prop-2-yn-1-yl]benzamide]
27 nM	CN1CC[C@@H](Nc2cccc3c(CC(F)(F)F)c(C#CCNC(=O)c4cnn(C(C)(C)C(F)(F)F)c4)nn23)[C@@H](F)C1 [Compound 148, N-[3-(7-{[(3S,4R)-3-fluoro-1-methylpiperidin-4-yl]amino}-3-(2,2,2-trifluoroethyl)pyrazolo[1,5-a]pyridin-2-yl)prop-2-yn-1-yl]-1-(1,1,1-trifluoro-2-methylprop-2-yl)-1H-pyrazole-4-carboxamide]
69 nM	Cc1nn(C(C)(C)C)c(N)c1C(=O)NCC#Cc1nn2c(N[C@@H]3CCN(C)C[C@@H]3F)cccc2c1CC(F)(F)F [Compound 288, 5-amino-1-tert-butyl-N-[3-(7-{[(3S,4R)-3-fluoro-1-methylpiperidin-4-yl]amino}-3-(2,2,2-trifluoroethyl)pyrazolo[1,5-a]pyridin-2-yl)prop-2-yn-1-yl]-3-methyl-1H-pyrazole-4-carboxamide]
18 nM	CN1CC[C@@H](Nc2cccc3c(CC(F)(F)F)c(C#CCNC(=O)c4cnn(CC(F)(F)F)c4)nn23)[C@@H](F)C1 [Compound 030]
12 nM	CN1CC[C@@H](Nc2cccc3c(CC(F)(F)F)c(C#CCNC(=O)c4cn(CC5CCCC5)nc4N)nn23)[C@@H](F)C1 [Compound 349]
8 nM	CC(C1CC1)n1cc(C(=O)NCC#Cc2nn3c(N[C@@H]4CCN(C)C[C@@H]4F)cccc3c2CC(F)(F)F)cn1 (stereo partly drawn) [Compound 269, 1-(1-cyclopropylethyl)-N-[3-(7-{[(3S,4R)-3-fluoro-1-methylpiperidin-4-yl]amino}-3-(2,2,2-trifluoroethyl)pyrazolo[1,5-a]pyridin-2-yl)prop-2-yn-1-yl]-1H-pyrazole-4-carboxamide]
13 nM	CN1CC[C@@H](Nc2cccc3c(CC(F)(F)F)c(C#CCNC(=O)c4cn(CC(C)(C)C)nc4N)nn23)[C@@H](F)C1 [Compound 352]
8 nM	CN1CCCC(Nc2cccc3c(CC(F)(F)F)c(C#CCNC(=O)c4cnn(C(C)(C)C)c4N)nn23)CC1 (single isomer, unassigned) [Compound 369-A, 5-amino-1-tert-butyl-N-(3-(7-[(1-methylazepan-4-yl)amino]-3-(2,2,2-trifluoroethyl)pyrazolo[1,5-a]pyridin-2-yl)prop-2-yn-1-yl)-1H-pyrazole-4-carboxamide]
57 nM	CC(C)c1cc(C(=O)NCC#Cc2nn3c(N[C@@H]4CCN(C)C[C@@H]4F)cccc3c2CC(F)(F)F)on1 [Compound 323, N-[3-(7-{[(3S,4R)-3-fluoro-1-methylpiperidin-4-yl]amino}-3-(2,2,2-trifluoroethyl)pyrazolo[1,5-a]pyridin-2-yl)prop-2-yn-1-yl]-3-isopropylisoxazole-5-carboxamide]
86 nM	COc1nn(C(C)(C)C)cc1C(=O)NCC#Cc1nn2c(N[C@@H]3CCN(C)C[C@@H]3F)cccc2c1CC(F)(F)F [Compound 043]
8 nM	CC(C)Cn1ncc(C(=O)NCC#Cc2nn3c(N[C@@H]4CCN(C)C[C@@H]4F)cccc3c2CC(F)(F)F)c1N [Compound 286, 5-amino-N-[3-(7-{[(3S,4R)-3-fluoro-1-methylpiperidin-4-yl]amino}-3-(2,2,2-trifluoroethyl)pyrazolo[1,5-a]pyridin-2-yl)prop-2-yn-1-yl]-1-isobutyl-1H-pyrazole-4-carboxamide]
87 nM	CN1CC[C@@H](Nc2cccc3c(CC(F)(F)F)c(C#CCNC(=O)c4cn(C(C)(C)C)nc4O)nn23)[C@@H](F)C1 [Compound 356, 1-(tert-butyl)-N-[3-(7-{[(3S,4R)-3-fluoro-1-methylpiperidin-4-yl]amino}-3-(2,2,2-trifluoroethyl)pyrazolo[1,5-a]pyridin-2-yl)prop-2-yn-1-yl]-3-hydroxy-1H-pyrazole-4-carboxamide]
92 nM	CN1CC[C@@H](Nc2cccc3c(CC(F)(F)F)c(C#CCNC(=O)c4cccc(F)c4)nn23)[C@@H](F)C1 [Compound 339, 3-fluoro-N-[3-(7-{[(3S,4R)-3-fluoro-1-methylpiperidin-4-yl]amino}-3-(2,2,2-trifluoroethyl)pyrazolo[1,5-a]pyridin-2-yl)prop-2-yn-1-yl]benzamide]
23 nM	CN1CC[C@@H](Nc2cccc3c(CC(F)(F)F)c(C#CCNC(=O)c4cnn(CC(C)(C)C)c4N)nn23)[C@@H](F)C1 [Compound 287]
25 nM	CCn1ncc(C(=O)NCC#Cc2nn3c(N[C@@H]4CCN(C)C[C@@H]4F)cccc3c2CC(F)(F)F)c1Cl [Compound 343]
29 nM	CN1CC[C@@H](Nc2cccc3c(CC(F)(F)F)c(C#CCNC(=O)c4ncn(C)n4)nn23)[C@@H](F)C1 [Compound 324, N-[3-(7-{[(3S,4R)-3-fluoro-1-methylpiperidin-4-yl]amino}-3-(2,2,2-trifluoroethyl)pyrazolo[1,5-a]pyridin-2-yl)prop-2-yn-1-yl]-1-methyl-1H-1,2,4-triazole-3-carboxamide]
18 nM	CC(C)(C)n1ncc(C(=O)NCC#Cc2nn3c(N[C@@H]4CCN(C5CC5)C[C@@H]4F)cccc3c2CC(F)(F)F)c1N [Compound 372, 5-amino-1-tert-butyl-N-(3-(7-{[(3S,4R)-1-cyclopropyl-3-fluoropiperidin-4-yl]amino}-3-(2,2,2-trifluoroethyl)pyrazolo[1,5-a]pyridin-2-yl)prop-2-yn-1-yl)-1H-pyrazole-4-carboxamide]
21 nM	CN1CC[C@@H](Nc2cccc3c(CC(F)(F)F)c(C#CCNC(=O)c4cnn(C(C)(C)CF)c4)nn23)[C@@H](F)C1 [Compound 234, N-[3-(7-{[(3S,4R)-3-fluoro-1-methylpiperidin-4-yl]amino}-3-(2,2,2-trifluoroethyl)pyrazolo[1,5-a]pyridin-2-yl)prop-2-yn-1-yl]-1-(1-fluoro-2-methylpropan-2-yl)-1H-pyrazole-4-carboxamide]
12 nM	COCC(O)CN1CCC(Nc2cccc3c(CC(F)(F)F)c(C#CCNC(=O)c4cnn(C(C)(C)C)c4N)nn23)CC1 (centres unmarked) [Compound 371, 5-amino-1-tert-butyl-N-[3-(7-{[1-(2-hydroxy-3-methoxypropy)piperidin-4-yl]amino}-3-(2,2,2-trifluoroethyl)pyrazolo[1,5-a]pyridin-2-yl)prop-2-yn-1-yl]-1H-pyrazole-4-carboxamide]
18 nM	CN1CC[C@@H](Nc2cccc3c(CC(F)(F)F)c(C#CCNC(=O)c4cnn(C(C)(C)C5CC5)c4)nn23)[C@@H](F)C1 [Compound 346, 1-(2-cyclopropylprop-2-yl)-N-[3-(7-{[(3S,4R)-3-fluoro-1-methylpiperidin-4-yl]amino}-3-(2,2,2-trifluoroethyl)pyrazolo[1,5-a]pyridin-2-yl)prop-2-yn-1-yl]-1H-pyrazole-4-carboxamide]
